Several values for one entry are separate records, joined by “and”; a condition that tells them apart may be missing. Identical values can stand only once. Like-named read-outs stand apart in the source and are kept apart here.
Assays:
[1] = cited from earlier work
[2] = cited from earlier work; remark: listed apart in the source
[3] = Candidate screening for antimicrobial synergy with lactic acid
Protocol: In addition to tested organic acids, a number of glycols, alcohols, diols and other candidates were also screened, for pairing with the organic acid. Viable candidates may also have: 1) a vapor pressure characteristics as noted above; 2) be soluble in water; and/or 3) have an ECHA Inhalation Threshold for the General Population of greater than 10 mg/m^3.
As such, while glycols may optionally be present, in an embodiment, the present formulations may be void, or substantially void of such glycol components (particularly propylene glycol and glycols including an ether group). The same may be said for various other candidate materials noted in Table 2.

[4] = cited from earlier work; remark: listed apart in the source
[5] = Acid dissociation of lactic acid; type: physicochemical; settings: at a pH of 2.2
Excerpt: In another aspect, the pH of the antimicrobial formulation is kept low. A low pH can be important for lactic acid or other acids to achieve air sanitization efficacy. […].

[6] = Table 2 candidates for pairing with the organic acid
[7] = Table 1 organic acids, standard conditions (e.g., 20° C. and 1 atmosphere)
[8] = organic acids, long term inhalation

## CCC(O)CO (stereo not shown) [1,2-butanediol]
[1]; Table 2 candidates
  ECHA Inhalation Threshold for General Population: No hazard identified
[2]; [6]
  Vapor Pressure: 10 Pa

## CCCCC(O)CO (stereo not shown) [1,2-hexanediol (HDO), 1,2-hexanediol]
[3]
  antimicrobial synergy with lactic acid: synergy with lactic acid

## CC(O)CCO (stereo not shown) [1,3-butanediol]
[2]; [6]
  Vapor Pressure: 26 Pa

## CCCCCCCCCCCCO [1-dodecanol]
[1]; Table 2 candidates
  ECHA Inhalation Threshold for General Population: 77 mg/m^3

## O=C(O)CCO [3-hydroxypropionic acid]
[4]
  Solubility in water (g of compound in 100 g of water at ~20° C.): Very soluble^1

## CC(=O)O [acetic acid]
[1]; local effects
  ECHA local effects DNEL: 25 mg/m^3)^1
[2]; [7]
  Vapor Pressure: 2080^3 Pa

## O=C(O)CCCCC(=O)O [adipic acid]
[2]; [7]
  Vapor Pressure: 9.70^1 Pa

## O=C(O)c1ccccc1 [benzoic acid]
[1]; [8]
  ECHA Inhalation Threshold for General Population: 1.5^3 mg/m^3
[2]; [7]
  Vapor Pressure: 0.11^1 Pa

## O=C(O)CO [glycolic acid]
[1]; [8]
  ECHA Inhalation Threshold for General Population: 2.6 mg/m^3 and 2.6^3 mg/m^3

## CCCCCCC(=O)O [heptanoic acid]
[4]
  Solubility in water (g of compound in 100 g of water at ~20° C.): 0.2^2 g of compound in 100 g of water

## CCCCCC(=O)O [hexanoic acid]
[1]; [8]
  ECHA Inhalation Threshold for General Population: 4.35^3 mg/m^3
[2]; [7]
  Vapor Pressure: 5.80^1 Pa

## CC(O)C(=O)O (stereo not shown) [lactic acid]
[5]
  fraction of lactic acid in the acidic form: at least 95%

## O=C(O)CC(=O)O [malonic acid]
[1]; [8]
  ECHA Inhalation Threshold for General Population: 1.04^3 mg/m^3

## CC(=O)C(=O)O [pyruvic acid]
[4]
  Solubility in water (g of compound in 100 g of water at ~20° C.): 100^1 g of compound in 100 g of water
[4]; standard conditions (room temperature and 1 atm)
  solubility: about 100 g/100 g water

— patent US20240181111A1, “SYSTEMS AND METHODS FOR AIR SANITIZATION USING FORMULAS CONTAINING AN ORGANIC ACID” (The Clorox Company, priority 2022, published 2024)
